Legend:
[1] = target: T1, human recombinant histamine H1 receptor (Homo sapiens, UniProt P35367); assay: Histamine H1 radioligand binding ([3H]Pyrilamine); conditions: compound at 1 μM; read-out: Histamine Binding (1 μM) H1, percent inhibition of specific binding
T1 construct: expressed in transfected cells; host or cells: CHO cells
How it was run: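 Membranes from CHO cells expressing the receptor were incubated with compound and 1.2 nM [3H]pyrilamine for 180 min at 25 °C in 50 mM Tris-HCl pH 7.4 with MgCl2, NaCl and sucrose; 1 μM pyrilamine defined non-specific binding. Filter-bound radioactivity was counted.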

[2] = target: T2, human recombinant serotonin (5-Hydroxytryptamine) 5-HT2A receptor (Homo sapiens, UniProt P28223); assay: Serotonin 5-HT2A radioligand binding ([3H]Ketanserin); conditions: compound at 1 μM; read-out: Serotonin (1 μM) 5-HT2A, percent inhibition of specific binding
T2 construct: expressed in transfected cells; host or cells: CHO-K1 cells
T2 sequence (P28223 whole entry): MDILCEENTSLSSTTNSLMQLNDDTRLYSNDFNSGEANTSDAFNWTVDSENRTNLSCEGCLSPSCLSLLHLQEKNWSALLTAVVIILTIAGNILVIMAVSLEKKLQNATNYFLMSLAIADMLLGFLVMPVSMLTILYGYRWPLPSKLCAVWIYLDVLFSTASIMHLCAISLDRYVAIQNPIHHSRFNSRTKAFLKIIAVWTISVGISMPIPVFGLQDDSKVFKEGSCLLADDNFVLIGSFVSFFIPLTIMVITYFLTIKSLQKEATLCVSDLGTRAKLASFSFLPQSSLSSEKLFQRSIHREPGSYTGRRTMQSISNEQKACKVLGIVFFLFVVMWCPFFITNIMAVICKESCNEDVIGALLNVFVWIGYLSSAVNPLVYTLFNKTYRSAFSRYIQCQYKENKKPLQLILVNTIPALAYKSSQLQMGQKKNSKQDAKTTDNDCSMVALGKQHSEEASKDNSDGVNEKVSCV
How it was run: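 Percent inhibition of specific [3H]ketanserin (0.5 nM) binding, filtration read-out, with compounds at ≤1 μM (1% DMSO vehicle). Receptor source: recombinant human 5-HT2A in CHO-K1 cells, 50 mM Tris-HCl pH 7.4, 60 min, 25 °C; 1 μM mianserin gives nonspecific binding.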

[3] = target: T3, human recombinant serotonin (5-Hydroxytryptamine) 5-HT2C receptor (Homo sapiens, UniProt P28335); assay: Serotonin 5-HT2C radioligand binding ([3H]Mesulergine); conditions: compound at 1 μM; read-out: Serotonin (1 μM) 5-HT2C, percent inhibition of specific binding
T3 construct: expressed in transfected cells; host or cells: CHO-K1 cells
T3 sequence (P28335 33-458): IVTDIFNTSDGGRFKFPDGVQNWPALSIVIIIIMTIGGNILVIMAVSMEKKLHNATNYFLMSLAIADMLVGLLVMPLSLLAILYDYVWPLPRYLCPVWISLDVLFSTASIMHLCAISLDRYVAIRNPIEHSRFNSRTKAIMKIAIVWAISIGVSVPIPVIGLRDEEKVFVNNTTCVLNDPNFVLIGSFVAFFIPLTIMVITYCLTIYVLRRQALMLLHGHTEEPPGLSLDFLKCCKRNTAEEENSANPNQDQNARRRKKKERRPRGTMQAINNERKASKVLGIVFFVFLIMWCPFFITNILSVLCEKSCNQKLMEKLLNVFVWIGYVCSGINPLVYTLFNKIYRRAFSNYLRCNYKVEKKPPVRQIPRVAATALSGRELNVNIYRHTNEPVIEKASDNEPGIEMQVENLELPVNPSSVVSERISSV
How it was run: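 Membranes from CHO-K1 cells expressing human 5-HT2C, incubated with 1 nM [3H]mesulergine for 60 min at 25 °C in 50 mM Tris-HCl pH 7.4 with ascorbic acid and pargyline.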

[4] = target: T4, human recombinant serotonin (5-Hydroxytryptamine) 5-HT6 receptor (Homo sapiens, UniProt P50406); assay: Serotonin 5-HT6 radioligand binding ([3H]LSD); conditions: compound at 1 μM; read-out: Serotonin (1 μM) 5-HT6, percent inhibition of specific binding
T4 construct: expressed in transfected cells; host or cells: human HeLa cells
T4 sequence (P50406 whole entry): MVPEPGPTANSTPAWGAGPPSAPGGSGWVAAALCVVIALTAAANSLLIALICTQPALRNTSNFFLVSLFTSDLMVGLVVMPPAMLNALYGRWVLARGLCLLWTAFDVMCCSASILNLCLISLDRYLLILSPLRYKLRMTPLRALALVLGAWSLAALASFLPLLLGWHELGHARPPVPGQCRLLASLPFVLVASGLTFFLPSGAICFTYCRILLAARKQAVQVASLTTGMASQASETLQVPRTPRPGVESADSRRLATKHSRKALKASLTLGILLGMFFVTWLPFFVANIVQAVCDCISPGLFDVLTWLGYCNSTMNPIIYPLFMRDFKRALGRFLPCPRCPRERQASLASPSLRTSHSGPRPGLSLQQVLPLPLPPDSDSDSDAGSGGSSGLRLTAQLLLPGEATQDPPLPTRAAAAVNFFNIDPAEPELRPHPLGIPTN
How it was run: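 Human recombinant 5-HT6 receptor from HeLa cells incubated with 1.5 nM [3H]LSD for 120 min at 37° C in 50 mM Tris-HCl pH 7.4, 150 mM NaCl, 2 mM ascorbic acid, 0.001% BSA. Nonspecific binding defined with 5 μM serotonin; bound ligand counted after filtration.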

T1 sequence (P35367 whole entry): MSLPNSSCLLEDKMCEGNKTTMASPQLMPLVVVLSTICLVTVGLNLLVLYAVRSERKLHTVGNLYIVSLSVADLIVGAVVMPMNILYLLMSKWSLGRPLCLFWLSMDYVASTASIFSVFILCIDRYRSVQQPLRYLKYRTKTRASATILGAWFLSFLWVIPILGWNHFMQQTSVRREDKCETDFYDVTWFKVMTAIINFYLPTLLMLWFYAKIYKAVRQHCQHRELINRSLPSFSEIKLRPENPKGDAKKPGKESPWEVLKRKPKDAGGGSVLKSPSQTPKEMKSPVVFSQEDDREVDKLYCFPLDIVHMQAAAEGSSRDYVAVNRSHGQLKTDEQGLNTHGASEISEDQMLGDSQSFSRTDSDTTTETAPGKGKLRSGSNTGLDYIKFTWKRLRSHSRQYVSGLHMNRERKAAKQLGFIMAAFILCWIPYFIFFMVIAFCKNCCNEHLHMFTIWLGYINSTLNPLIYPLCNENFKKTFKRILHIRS

| Structure (SMILES) | inhibition at 1 µM [1] [%] | inhibition at 1 µM [2] [%] | inhibition at 1 µM [3] [%] | inhibition at 1 µM [4] [%] |
| --- | --- | --- | --- | --- |
| CN1CCc2c(n(CC(C)(O)c3ccc(Cl)cc3)c3ccc(Cl)cc23)CC1 (centres unmarked) [Compound No. 12, 1-(9-chloro-2,3,4,5-tetrahydro-3-methylazepino[4,5-b]indol-6(1H)-yl)-2-(4-chlorophenyl)propan-2-ol] | 99 | 100 | 92 | 83 |
| Cc1ccc2c(c1)c1c(n2CC(C)(O)c2ccc(Cl)cc2)CCN(C)CC1 (centres unmarked) [Compound No. 15, 2-(4-chlorophenyl)-1-(2,3,4,5-tetrahydro-3,9-dimethylazepino[4,5-b]indol-6(1H)-yl)propan-2-ol] | 100 | 101 | 100 | 82 |
| Cc1ccc2c(c1)c1c(n2CCc2ccccc2Cl)CCN(C)CC1 [Compound No. 69, 6-(2-chlorophenethyl)-1,2,3,4,5,6-hexahydro-3,9-dimethylazepino[4,5-b]indole] | 2 | 52 | -1 | -4 |
| Cc1ccc2c(c1)c1c(n2CC(=O)N2CCCC2)CCN(C)CC1 [Compound No. 45, 2-(2,3,4,5-tetrahydro-3,9-dimethylazepino[4,5-b]indol-6(1H)-yl)-1-(pyrrolidin-1-yl)ethanone] | 13 | 22 | 16 | 2 |
| Cc1ccc2c(c1)c1c(n2CC(O)c2ccc(F)cc2)CCN(C)CC1 (centres unmarked) [Compound No. 52, 1-(4-fluorophenyl)-2-(2,3,4,5-tetrahydro-3,9-dimethylazepino[4,5-b]indol-6(1H)-yl)ethanol] | 96 | 97 | 96 | 84 |
| COc1ccc(C(O)Cn2c3c(c4cc(C)ccc42)CCN(C)CC3)cc1 (centres unmarked) [Compound No. 48, 2-(2,3,4,5-tetrahydro-3,9-dimethylazepino[4,5-b]indol-6(1H)-yl)-1-(4-methoxyphenyl) ethanol] | 98 | 97 | 98 | 73 |
| CN1CCc2c(n(CCc3ccc(C(=O)O)nc3)c3ccc(Cl)cc23)CC1 [Compound No. 21, 5-(2-(9-chloro-2,3,4,5-tetrahydro-3-methylazepino[4,5-b]indol-6(1H)-yl)ethyl)pyridine-2-carboxylic acid] | 96 | 8 | 29 | 30 |
| CN1CCc2c(n(CC(O)c3cccnc3)c3ccc(Cl)cc23)CC1 (centres unmarked) [Compound No. 18, 2-(9-chloro-2,3,4,5-tetrahydro-3-methylazepino[4,5-b]indol-6(1H)-yl)-1-(pyridin-3-yl)ethanol] | 98 | 88 | 64 | 60 |
| Cc1ccc2c(c1)c1c(n2CC(O)c2cccnc2)CCN(C)CC1 (centres unmarked) [Compound No. 19, 2-(2,3,4,5-tetrahydro-3,9-dimethylazepino[4,5-b]indol-6(1H)-yl)-1-(pyridin-3-yl)ethanol] | 99 | 80 | 52 | 42 |
| Cc1ccc2c(c1)c1c(n2/C=C/c2ccccc2)CCN(C)CC1 [Compound No. 229, (E)-3,9-dimethyl-6-styryl-1,2,3,4,5,6-hexahydroazepino[4,5-b]indole] | 100 | 100 | 98 | 102 |
| Cc1ccc2c(c1)c1c(n2CCc2ccc(Cl)cc2)CCN(C)CC1 [Compound No. 28, 6-(4-chlorophenethyl)-1,2,3,4,5,6-hexahydro-3,9-dimethylazepino[4,5-b]indole] | 103 | 100 | 94 | 95 |

From patent publication US9481676B2, “Azepino[4,5-B]indoles and methods of use” (Medivation Technologies, Inc., priority 2008, dated 2016)
